Experimental data as given in patent publication US11806393B2, “Flavivirus peptide sequences, epitopes, and methods and uses thereof” (priority 2017, dated 2023).
Ends that are not written are not given here.

Columns and labels:
[1] = system: splenocytes pulsed with ZIKV-derived peptides (target cells); format: in vivo, mouse; conditions: LysMCre+IFNARfl/fl mice infected with MR766 or FSS13025, day 7; targets pulsed with the three peptides; 12 h
Method: LysMCre^+IFNAR^fl/fl and WT mice were infected with 10^4 FFU of MR766 or FSS13025. Seven days post-infection, splenocytes were harvested from naïve donor mice, followed by stimulation with a pool of H-2b-restricted ZIKV-peptides (PrM169-177(SEQ ID NO: 19), E297-305 (SEQ ID NO: 25), N552783-2792 (SEQ ID NO: 20)) referred to as “Target Cells” or with DMSO for 3 h at 37° C. The cells were washed and labeled with CSFE (Invitrogen) in PBS/0.1% BSA for 10 min at 37° C. Target cells were labeled with 1 μM CSFE (High) or 100 nM CSFE (Low) for unstimulated cells. After washing, 10^7 of labeled cells (5×10^6 of each population) were injected intravenously into MOCK and infected recipients. Splenocytes from recipients were harvested 4 (Wild type) or 12 h later (LysMCre^+IFNAR^fl/fl) and analyzed by flow cytometry. The percentage of killing is calculated as followed: 100−(% ZIKV-peptide stimulated in infected mice/% DMSO-stimulated in infected mice)/(% ZIKV-peptide stimulated in naïve mice/% DMSO-stimulated in naïve mice)×100).
The following results are with respect to FIG. 7A to FIG. 7E, where WT C57BL/6 mice treated with type I IFN receptor-blocking antibody on day 1 prior to infection were inoculated with 10^4 FFU of ZIKV strain MR766 (n=3) or FSS (n=3), or injected with 10% FBS/PBS (MOCK, n=2). […] Four independent experiments for MR766 (n=8 mice per experiment) and two independent experiments for FSS13025 (n=8 mice per experiment) were performed in triplicate for each peptide. The data are expressed as the mean of spot forming cells (SFC) per 10^6 CD8^+ T cells. One-way ANOVA was used to compare the mean of each peptide with the control (DMSO). […] Pooled data from two independent experiments are shown. The dotted line corresponds to the average value obtained by MOCK after stimulation (0.43% of IFNγ^+CD8^+ T cells). Splenocytes were harvested on day 7 post-infection, followed by stimulation with 1 μg of IFNγ-ELISPOT-positive ZIKV-derived peptides in presence of Brefeldin A (BFA) and CD107a for 4 hours, and the production of IFNγ and TNFα was assessed via ICS. […]

CD8+ T cells [2] = conditions: H-2b restricted; cited from earlier work
CD8+ T cells [3] = experiment: Intracellular cytokine staining (ICS), WT C57BL/6 mice treated with IFNAR-blocking antibody; format: cell-based, mouse; conditions: splenocytes day 7 after MR766 or FSS13025; four peptides shared by both strains, NS31866-1874 MR766 only
Method: (§1) For intracellular cytokine staining (ICS), splenocytes were counted after red blood cell lysis and resuspended in 10% FBS/RPMI medium at 40×10^6 cells per ml. Splenocytes (2×10^6) were plated and stimulated with 1 μg of individual peptide as previously detailed (Elong Ngono et al., 2016). Positive (PMA-Ionomycin) and negative (No stimulation) controls were added for all experiments. Cells were labeled with anti-CD3 (Clone 145-2C11), anti-CD8 (clone 53-67), anti-CD44 (clone IM7), and anti-CD62L (clone Mel-14). Cells then were fixed and permeabilized, followed by staining with anti-granzyme B (clone NGZB), anti-IFNγ (clone XMG 1.2) and anti-TNFα(clone MP6-XT22). Samples were read on an LSR II (BD Biosciences) and were analyzed using FLOWJO™ software X 10.0.7 (Tree Star, Ashland, Oreg.).
The following results are with respect to FIG. 7A to FIG. 7E, where WT C57BL/6 mice treated with type I IFN receptor-blocking antibody on day 1 prior to infection were inoculated with 10^4 FFU of ZIKV strain MR766 (n=3) or FSS (n=3), or injected with 10% FBS/PBS (MOCK, n=2). […] The data are expressed as the mean of spot forming cells (SFC) per 10^6 CD8^+ T cells. […] Splenocytes were harvested on day 7 post-infection, followed by stimulation with 1 μg of IFNγ-ELISPOT-positive ZIKV-derived peptides in presence of Brefeldin A (BFA) and CD107a for 4 hours, and the production of IFNγ and TNFα was assessed via ICS. […]

CD8+ T cells [4] = experiment: ICS, LysMCre+IFNARfl/fl mice; format: cell-based, mouse; conditions: LysMCre+IFNARfl/fl mice infected with MR766 or FSS13025
Method: as §1
The following results are with reference to FIG. 3A and FIG. 3B, where five-week-old LysMCre^+IFNAR^fl/fl were infected retro-orbitally with 10^4 FFU of ZIKV MR766 or FSS13025. […] A total of 244 peptides from ZIKV strains predicted to bind H-2Kb and H-2db with high affinity were screened. Two independent experiments for each ZIKV strain (n=5 mice for each experiment) were performed in triplicate per peptide. The data are expressed as the mean of spot forming cells (SFC) per 10^6 CD8^+ T cells, and error bars are represented as SEM. […]

CD8+ T cells [5] = experiment: IFNγ ELISPOT, DENV2 S221-infected Ifnar-/- HLA-B*0702 transgenic mice; format: cell-based, mouse; conditions: HLA-B*0702 mice, 7 days after 2×10^4 FFU DENV2 S221
Method: (§2) Two ZIKV strains, MR766 (Uganda, 1947) and FSS13025 (Cambodia, 2010), were obtained from the World Reference Center for Emerging Viruses and Arboviruses (WRCEVA). The mouse-adapted DENV2 strain S221 is a triple-plaque purified clone derived from DENV2 D2S1038. Both ZIKV and DENV2 were amplified in C6/36 mosquito cells, and viral titers were measured using baby hamster kidney (BHK)-21 cell-based focus forming assay (FFA). For epitope screening, 5-week old mice (female or male) were infected retro-orbitally (R.O.) with either 1×102 FFU of ZIKV FSS13025 or ZIKV MR766, or 2×10^4 FFU of DENV2 S221 in 200 μl 10% FBS/PBS. Seven days after infection, CD8^+ T cells were isolated from splenocytes and used for ELISPOT assay, while the splenocytes were directly used for ICS assay. Additionally, 5-week old mice were inoculated I.P. with 2×10^3 FFU of DENV2 S221 for 4 weeks.
(§3) CD8^+ T cells were isolated from splenocytes using magnetic bead positive selection (Miltenyi Biotec, Germany) 7 days after virus infection. 2×10^5 CD8^+ T cells were stimulated with 1×10^5 LPS-blasts loaded with 10 μg of individual peptide in 96-well flat-bottom plates (IMMOBILON™-P; Millipore, Bedford, Mass.) that were coated with anti-IFNγ mAb (clone AN18; Mabtech, Stockholm, Sweden) in triplicate. Concanavalin A (ConA) was used as positive control. After 20 hours of incubation, biotinylated anti-mouse IFNγ mAb (R4-6A2; Mabtech), followed by ABC peroxidase (Vector Laboratories, Burlingame, Calif., USA) and then 3-amino-9-ethylcarbazole (Sigma-Aldrich, St. Louis, Mo., USA) were added into the wells. […] A peptide inducing a magnitude of >500 SFCs/10^6 CD8^+ T cells was considered as an immunodominant peptide.
The following results are with respect to FIG. 14A and FIG. 14B, where Ifnar^−/− HLA-B*0702 transgenic mice were infected R.O. with 2×10^4 FFU of DENV2 strain S221 for 7 days. CD8^+ T cells isolated from splenocytes were stimulated with each of the 37 ZIKV epitopes identified via IFNγELISPOT to perform (FIG. 14A) IFNγELISPOT and (FIG. 14B) ICS assay. Data represent the average of two independent IFNγELISPOT experiments and two independent ICS experiments (n=7 mice) and are expressed as mean±SEM. Dotted line corresponds to the cutoff value. *, P<0.05.

CD8+ T cells [6] = experiment: IFNγ ELISPOT, ZIKV-infected Ifnar-/- HLA-B*0702 transgenic mice; format: cell-based, mouse; conditions: HLA-B*0702 mice, 7 days after 1×10^2 FFU ZIKV MR766
Method: as §2, §3
Two independent experiments performed in triplicate were averaged and the error bars represent the SEM. The data are expressed as the mean number of spot forming cells (SFC) per 10^6 CD8^+ T cells. The criteria for positivity were net SFC per 10^6 cells of >20, and a stimulation index of >2.0 when compared with the negative control. Dotted lines represent the cutoff value. * Indicates a positive response. […] ConA denotes Concanavalin A.

CD3+CD8+ T cells = experiment: IFNγ ICS, ZIKV-infected Ifnar-/- HLA-B*0702 transgenic mice; format: cell-based, mouse; conditions: HLA-B*0702 mice, 7 days after ZIKV MR766, ICS
Method: as §2
Spleens were harvested from virus-infected, mock-immunized, or peptide-immunized mice. 1×10^6 splenocytes were plated in each well of 96-well U-bottom plates and stimulated with individual peptide (10 μg crude peptide or 1 μg pure peptide per well) for 6 hours. Five hours before the end of incubation, Brefeldin A (GolgiPlug; BD Biosciences) and PE-conjugated anti CD107a mAb (clone 1D4B, eBioscience) were added to the cells. Splenocytes stimulated with PMA-ionomycin were used as the positive control, while cells without any stimulation were the negative control. […] Samples were run using an LSR™ II (BD Biosciences) and analyzed using FLOWJO™ software X 10.0.7 (Tree Star, Ashland, Oreg.).
Data represent the average of two independent experiments and are expressed as mean±SEM. *, P<0.05; **, P<0.01; Two-tailed Mann-Whitney test. P/I denotes PMA/ionomycin.

CD8+ T cells [7] = experiment: ICS, DENV2-immune Ifnar-/- HLA-B*0702 mice challenged with ZIKV FSS13025; format: cell-based, mouse; conditions: day 3 after ZIKV FSS13025 challenge
Method: as §2
Spleens were harvested from virus-infected, mock-immunized, or peptide-immunized mice. 1×10^6 splenocytes were plated in each well of 96-well U-bottom plates and stimulated with individual peptide (10 μg crude peptide or 1 μg pure peptide per well) for 6 hours. Five hours before the end of incubation, Brefeldin A (GolgiPlug; BD Biosciences) and PE-conjugated anti CD107a mAb (clone 1D4B, eBioscience) were added to the cells. Splenocytes stimulated with PMA-ionomycin were used as the positive control, while cells without any stimulation were the negative control. After incubation, cells were first stained with PERCPCY™ 5.5-conjugated anti-CD3 mAb (Clone 145-2C11, TONBO), PE-CY7™-conjugated anti-CD8 mAb (clone 53-67, BD Biosciences), EFLUOR™ 450-conjugated anti-CD44 mAb (clone IM7, eBioscience), and APC eFluor 780-conjugated anti-CD62L mAb (clone Mel-14, eBioscience). Cells were then fixed and permeabilized using CYTOFIX/CYTOPERM™ solution (BD Biosciences), followed by staining with FITC-conjugated anti-IFNγ mAb (clone XMG 1.2, TONBO) and APC-conjugated anti-TNFα mAb (clone MP6-XT22, eBioscience). Samples were run using an LSR™ II (BD Biosciences) and analyzed using FLOWJO™ software X 10.0.7 (Tree Star, Ashland, Oreg.).
The following results are with respect to FIG. 11 to FIG. 11E, where Ifnar^−/− HLA-B*0702 transgenic mice were inoculated I.P. with 2×10^3 FFU of DENV2 strain S221 for 4 weeks. Naive mice (n=5) and DENV2 strain S221-immune mice (n=5) were challenged R.O. with 1×10^4 FU of ZIKV FSS13025 for three days, and the percentages of peptide-specific IFNγ^+ and/or TNFα^+ CD8^+ T cells were detected by ICS (FIG. 11A and FIG. 11B). […] Data were expressed as mean±SEM. *, P<0.05; **, P<0.01; Two-tailed ann-Whitney test. Black “*” indicates ZIKV-specific response while bold “*” represents ZIKV/DENV cross-reactive response. All positive peptides were grouped according the ZIKV specificity of immune response (FIG. 11E). Numbers in parentheses indicate the number of positive peptides in this group.

| Sequence | in vivo cytotoxicity against peptide-pulsed splenocytes [1] | cross-reactivity with CD8+ T cells induced in DENV2-infected mice (CD8+ T cells [2]) | frequency of IFNγ-producing CD8+ T cells (ICS) (CD8+ T cells [3]) | further results |
| --- | --- | --- | --- | --- |
| CAEAPNMKVI [SEQ ID NO 20] | high percentage of cytotoxicity |  |  |  |
| ATMSYECPM [SEQ ID NO 19] | high percentage of cytotoxicity |  |  |  |
| PSVRNGNEI [SEQ ID NO 5] |  | cross-reactive | induced a high frequency of IFNγ-expressing cells |  |
| IGVSNRDFV [SEQ ID NO 21] |  | cross-reactive | induced a high frequency of IFNγ-expressing cells | immunodominance of epitopes (IFNγ+TNFα+ and CD107a+IFNγ+ ICS) (CD8+ T cells [4]): immunodominant epitopes |
| SNRDFVEGM [SEQ ID NO 25] | high percentage of cytotoxicity |  |  |  |
| VVMILGGFSM [MR-NS2A31-40] |  |  |  | SFC/10^6 CD8+ T cells, S221 (CD8+ T cells [5]): 51 SFC/10^6 CD8+ T cells; SFC/10^6 CD8+ T cells, MR766 (CD8+ T cells [6]): 106 SFC/10^6 CD8+ T cells; % IFNγ+ CD8+ T cells, MR766 (CD3+CD8+ T cells): (0.37%); percentage of epitope-specific IFNγ-producing CD8+ T cells (CD8+ T cells [7]): 0.42±0.12% |
